Assay results published in patent US11466032B2, “Cytotoxic agents” (FEMTOGENIX LIMITED, priority 2017, dated 2022).

Key:
SK-BR-3 = test: MTT cytotoxicity assay, 72 hour incubation; type: cell-based; conditions: Homo sapiens, 3 runs
Protocol: (§1) The cytotoxicity of compounds 26, 34, 50,58 and 68 were evaluated in a variety of cell lines using the standard MTT assay for a 72 hour incubation period (Table 1).
(§2) Tumor cell lines were maintained in RPMI1640 medium supplemented with 10% heat-inactivated fetal bovine serum, 2 mM L-glutamine and 1 mM sodium pyruvate. 1800 cells per well were seeded in a volume of 180 μl in a 96-well flat bottom polystyrene plate. The cells were allowed to adhere overnight at 37° C. in a CO2 incubator. Ligands were initially formulated in DMSO, and stocks stored at −80° C. They were then further formulated at lox concentration in RPMI1640 medium. 20 ul of diluted samples were added into each treatment well. On each plate, blank wells with no cells, and untreated wells containing cells, were included. Plates were then cultured at 37° C. in a CO2 incubator for 72 hrs. Cytotoxicity was evaluated using a tetrazolium salt-based assay, the MT assay. After 72 hours, the supernatant was removed from each well and 200 μl of a sterile filtered 500 μg/ml MT solution in water added to each well. The plates were then incubated at 37° C. in a CO2 incubator for 4 hrs. The supernatant was then removed and the formazan crystals formed solubilized by adding 150 μl of DMSO to each well. The plate was then read on a plate reader at 540 nm, and percentage cell survival calculated as follows: ((mean absorbance treated wells at concentration x—mean absorbance blank wells)÷(mean absorbance untreated wells at concentration x—mean absorbance blank wells))×100. Data were plotted as concentration in nM vs. % cell survival in Microsoft Excel, and IC50 values (concentration where cell survival is reduced by a half) were determined from the graph.

SW 620 = test: MTT cytotoxicity assay, 72 hour incubation; type: cell-based; conditions: Homo sapiens, SW-620, 3 runs
Protocol: as §1, §2

MCF-7 = test: MTT cytotoxicity assay, 72 hour incubation; type: cell-based; conditions: Homo sapiens, MCF7, 3 runs
Protocol: as §1, §2

SW48 = test: MTT cytotoxicity assay, 72 hour incubation; type: cell-based; conditions: Homo sapiens, SW48, 3 runs
Protocol: as §1, §2

ZR 75-1 = test: MTT cytotoxicity assay, 72 hour incubation; type: cell-based; conditions: Homo sapiens, 3 runs
Protocol: as §1, §2

[1] = system: HexA and MS1 DNA fragments; test: DNA footprinting; type: binding; conditions: X is any base, Y is G or C, W is A or T; overnight incubation
Protocol: The sequence selectivity of 26 and 34 was investigated using a modification of the previously established DNA footprinting assay^25. Following an overnight incubation of the ligand-DNA complexes, the mixture was mixed with strand separation buffer containing 10 mM EDTA, 10 mM NaOH, 0.1% bromophenol blue, 80% formamide and incubated at 100° C. for 3 min. The mixture was then immediately cooled on ice and run on an 8% denaturing gel.
Footprinting reactions were performed as previously described^[5] using the DNA fragments HexA and HexB, which together contain all 64 symmetrical hexanucleotide sequences^[6], and MS1 that contains all possible […] tetranucleotide sequences^[7]. The DNA fragments were obtained by cutting the parent plasmids with HindIII and SacI (for HexA and MS1) or EcoRI and PstI (for HexB), and were labelled at the 3′-end of the HindIII or EcoRI sites with [α-^32P]dATP using reverse transcriptase or exo-Klenow fragment. After gel purification, the radiolabelled DNA was dissolved in 10 mM Tris-HCl pH 7.5 containing 0.1 mM EDTA, at a concentration of about 10 c.p.s per μL as determined on a hand held Geiger counter. 1.5 μL of radiolabelled DNA was mixed with 1.5 μL ligand that had been freshly diluted in 10 mM Tris-HCl pH 7.5, containing 10 mM NaCl. […]

[2] = system: fluorescently labelled DNA duplexes; test: FRET DNA melting; type: binding
Protocol: FRET DNA Melting FRET DNA melting studies were undertaken on 26 and 34 using a number of fluorescently labelled sequences. The sequences (FIG. 10) were designed to provide additional evidence that 26 and 34 can form inter- and intrastrand cross-links at the site 5′-XYWWYWYX-3′.
The short duplexes used in this FRET study are relatively unstable in the duplex form with a melting temperature below 30° C. so that, in the absence of ligand, a large part of the melting occurs below the starting temperature of the experiment.
Oligonucleotides were obtained from ATDbio (Southampton, UK) in lyophilised form. They were labelled with a fluorophore molecule (F=fluorescein) at the 5′-end and a quencher molecule (Q=dabcyl) at the 3′-end of the complementary strand. Each oligonucleotide was dissolved in distilled H2O to form stock solutions of 100 μM. Working solutions of 5 μM were prepared by diluting the stock solution with distilled H2O.
The following buffers were used: 250 mM phosphate buffer pH 7.4 (consisting of sodium dihydrogen phosphate and sodium phosphate diluted in distilled H2O) and 5 M sodium chloride buffer. All buffers and distilled H2O were filtered through a […] filter prior to use.
The reaction mixture was comprised of 4 μL of 250 mM phosphate buffer (final concentration of 50 mM), 4 μL flourophor and 4 μL quencher molecule of the appropriate oligonucleotide for a final concentration of 0.2 μM, 4 μL 5 M sodium chloride (final concentration of 1 M NaCl), and 4 μL of distilled H2O. This mixture was heated in an Eppendorf tube at 90° C. for 1 min and slowly cooled down to room temperature. This process was carried out to anneal the single strands to double-stranded DNA. Following this, 4 μL of the ligand was added in the desired concentration and the mixture incubated overnight either at room temperature or 4° C. […] This mixture was analysed without prior annealing.
Fluorescence melting profiles were measured using a Roche LightCycler using a total reaction volume of 20 μL. […] Annealing steps and melting steps were all recorded and changes in fluorescence were measured at 520 nm. […]

## CNS(=O)(=O)c1ccc(C2=CCN3C(=O)c4cc(OC)c(OCc5cccc(COc6cc7c(cc6OC)C(=O)N6CC=C(c8ccc(S(=O)(=O)NC)cc8)C[C@H]6C=N7)n5)cc4N=C[C@@H]3C2)cc1 [Compound 34, 4,4′-((6aS,6a′S)-((Pyridine-2,6-diylbis(methylene))bis(oxy))bis(2-methoxy-12-oxo-6a,7,10,12-tetrahydrobenzo[e]pyrido[1,2-α][1,4]diazepine-3,8-diyl))bis(N-methylbenzenesulfonamide)]
SK-BR-3
  IC50: 0.041 nM
SW 620
  IC50: 0.325 nM
MCF-7
  IC50: 0.057 nM
SW48
  IC50: 7.7 pM
ZR 75-1
  IC50: 0.159 nM
[1]
  general code of the footprints (preferred binding sites): XYWWYWYX
[2]; 5′-AAAAAAGAGAACAAAAAA-3′ (Seq 23), interstrand cross-link
  Tm of duplex with ligand: ~71 °C
[2]; 5′-AAAAAAGATCAAAAAA-3′ (Seq 12), traditional PBD binding site
  stabilisation of duplex: limited stabilisation
[2]; AAAAAAGAGAGAAAAAA-3′ (Seq 20), intrastrand cross-link
  Tm of duplex with ligand: 66 °C
